# According to patent US20250101062A1, “ANTIMICROBIAL PEPTIDES” (Board of Regents of the University of Nebraska, priority 2023, published 2025):
# Where two headings read alike, the source gives them in different places. Where a SMILES comes first, the peptide text is derived from it.
# Key:
# E. coli E423-17 = format: cell-based, Escherichia coli; details: E423-17
# Protocol: (§1) The following resistant bacterial clinical strains were used in this study: S. aureus USA300 LAC, S. epidermidis 1457, E. coli E423-17, P. aeruginosa E411-17, K. pneumoniae E406-17, and A. baumannii B28-16. While the S. aureus USA300 strain is methicillin-resistant, most of the Gram-negative bacteria contain extended-spectrum beta-lactamase and are resistant to beta-lactam antibiotics. Peptide activity against bacteria was tested using an established lab protocol (Mishra, et al. (2017) Acta Biomater., 49:316-328). In brief, a peptide concentration gradient with twofold dilution was made in the 96-well polystyrene microplate at 10 μL per well. Bacteria were grown to the exponential phase (i.e., optical density at 600 nm≈0.5), diluted to ˜10^5 CFU/mL in different percentages of MHB, TSB, or LB, and partitioned into the 96-well microplate at 90 μL per well. […] They were diluted with autoclaved distilled water to obtain different percentages. The microplates were incubated at 37° C. overnight and read on a ChroMate™ 4300 microplate reader at 600 nm (GMI, Ramsey, MN). The peptide concentration in the wells without bacterial growth is the MIC. As is the convention, MIC values were represented as ranges.
# (§2) For pH effects on peptide activity, the pH of the medium was adjusted to a targeted pH for the autoclave and then remeasured at room temperature. For salt and serum effects on peptide activity, stock NaCl solution or human serum was added to the media.
# (§3) Peptide activity against bacteria were tested using the CLSI standard procedure with minor modifications (Clinical and Laboratory Standards Institute (2018) Performance standards for antimicrobial susceptibility testing, 9th ed.; Mishra, et al. (2019) Proc. Natl. Acad. Sci., 116(27):13517-13522). In brief, a peptide concentration gradient with twofold dilution was made in the 96-well polystyrene microplate at 10 μL per well. Bacteria were grown to the exponential phase (i.e., optical density at 600 nm≈0.5), diluted to ˜10^5 CFU/mL in MHB, and partitioned into the 96-well microplate at 90 μL per well. The microplates were incubated at 37° C. overnight and read on a ChroMate® 4300 Microplate Reader at 600 nm (GMI, Ramsey, MN). The peptide concentration in the wells without bacterial growth is the minimal inhibitory concentration (MIC). As the convention, MIC values were represented as ranges.
# (§4) For pH effects on peptide activity, the pH of the medium was adjusted to a targeted pH for autoclave and then remeasured at room temperature. For salt and serum effects on peptide activity, stock NaCl solution or human serum were added to the media.
# S. epidermidis 1457 = test: microbe, parasite or virus in culture; format: cell-based, Staphylococcus epidermidis; details: read-out: Antimicrobial activity (MIC) S. epidermidis 1457
# Protocol: as §1, §3
# P. aeruginosa E411-17 = test: microbe, parasite or virus in culture; format: cell-based, Pseudomonas aeruginosa; details: E411-17
# Protocol: as §1, §2, §3, §4
# S. aureus USA300 LAC = test: microbe, parasite or virus in culture; format: cell-based, Staphylococcus aureus
# Protocol: as §1, §2, §3, §4
# A. baumannii B28-16 = format: cell-based, Acinetobacter baumannii; details: B28-16
# Protocol: as §1, §3
# [1] = tested on: S. aureus USA300 LAC biofilms; test: Disruption of preformed biofilms in vitro (XTT); format: cell-based, Staphylococcus aureus; details: 24 h preformed biofilm
# Protocol: (§5) Effects of Peptides on Established Biofilms in Vitro. Bacteria (S. aureus USA300 LAC and E. coli E423-17) were grown in rich TSB media overnight. A second inoculation was made the next day to reach an exponential phase (OD600˜0.4). Microtiter plates (96 wells, Corning Costar Cat no. 3595), after aliquoting with 180 μL of the culture to each well, were incubated at 37° C. for 24 hours to form biofilms in rich TSB. Media were aspirated post incubation, and the attached biofilms were washed with 1×PBS to remove the planktonic bacteria. […] Biofilms treated with water served as the positive control, while media without bacterial inoculation served as the negative control. Live cells in the biofilms were quantitated using XTT as described above. Absorbance was read at 450 nm (only media with XTT containing wells served as the blank) using a ChroMate™ microtiter plate reader. Percentage biofilm growth for the peptide was plotted by assuming 100% biofilm growth in bacterial control alone. The data were represented as mean±SD; plots were generated using GraphPad prism 7, where * indicates p<0.05, **p<0.01, and ***P<0.001, and ****p<0.0001 (one-way analyses of variance).
# LL-37 is known to inhibit bacterial biofilms (Overhage, et al. (2008) Infect. Immun., 76:4176-4182). However, it was unable to disrupt preformed MRSA biofilms in rich media (Mishra, et al. (2016) ACS Med. Chem. Lett., 7:117-121). Next, it was determined whether the diluted MHB medium could be useful to detect biofilm-disrupting activity for LL-37 against MRSA. An established procedure (Mishra, et al. (2016) ACS Med. Chem. Lett., 7:117-121; Duplantier, et al. (2013) Front. Immunol., 4:143) was used wherein biofilms were formed and washed as usual to remove planktonic cells. The biofilms were then treated with peptides in 12.5% MHB for 24 hours. Finally, live cells were quantified with XTT (ATCC). FIG. 2 compares the levels of live cells of MRSA in the preformed biofilms after 24 hour treatment. […] Of note is a similar pattern for both peptides in 12.5% MHB treated at various concentrations.
# Bacteria (S. aureus USA300 LAC or P. aeruginosa E411-17) were grown up in TSB media overnight. A second inoculation was made the next day to reach an exponential phase (OD600˜0.4). Microtiter plates (96 wells, Corning Costar Cat No. 3595), after aliquoting with 180 μL of the culture to each well, were incubated at 37° C. for 24 hours to form biofilms in rich TSB. Media were aspirated post incubation and the attached biofilms were washed with 1×PBS to remove the planktonic bacteria. […] Biofilms treated with water served as the positive control while media without bacterial inoculation served as the negative control. Live cells in the biofilms were quantitated using the XTT as described above. Absorbance was read at 450 nm (only media with XTT containing wells served as the blank) using a ChroMate® microtiter plate reader. Percentage biofilm growth (the plot legend is antibiofilm activity) for the peptides was plotted by assuming 100% biofilm growth in bacterial control alone. The data were represented as mean±SD, plots were generated using GraphPad prism 7, where * indicates p<0.05, ** p<0.01, and ***P<0.001, and ****p<0.0001 (one-way analyses of variance).
# E. coli E423-17 biofilms = test: Disruption of preformed biofilms in vitro (XTT); format: cell-based, Escherichia coli; details: 24 h preformed biofilm
# Protocol: as §5
# [2] = Effect of MHB dilution on antibacterial activity of a panel of antibiotics; format: cell-based; details: MHB from 100 to 12.5%
# Protocol: FIGS. 2A-2D show biofilm disruption activity of human LL-37 (FIGS. 2A and 2B) and 17BIPHE2 (FIGS. 2C and 2D) against the 24 hour preformed biofilms of S. aureus USA300 LAC in different MHB media: 12.5% MHB (FIGS. 2A and 2C) and 100% MHB (FIGS. 2B and 2D). FIGS. 2E-2H show the treatment outcome of LL-37 (FIGS. 2E and 2F) and 17BIPHE2 (FIGS. 2G and 2H) against the 24-hour preformed biofilms of E. coli E423-17 in different MHB media: 12.5% MHB (FIGS. 2E and 2G) and 100% MHB (FIGS. 2F and 2H). […] Growth curves of S. aureus USA 300 LAC (FIGS. 2J-2K) and P. aeruginosa 152 (FIGS. 2L-2M) in 12.5%, 25%, 50% and 100% MHB or TSB medium (curves from bottom to top).
# The effects of MHB dilution on the antimicrobial activity of a panel of antibiotics was also compared (FIG. 2I).
# MRSA USA300 = test: microbe, parasite or virus in culture; format: cell-based, Staphylococcus aureus
# Protocol: The experiment was conducted as described (Lakshmaiah et al. (2020) Proc. Natl. Acad. Sci., 117:19446-19454). Briefly, MRSA USA300 was grown to the exponential phase in MHB and diluted to OD600 0.001 (˜10^5 CFU/mL). Aliquots of 90 μL were added to a 96-well polystyrene microplate (Costar, Corning, NY) containing 10 μL of serially diluted LL-37mini, nafcillin, or daptomycin. After overnight incubation at 37° C., the plates were read at 600 nm using a ChroMate™ microplate reader (GMI, Ramsey, MN). Untreated bacterial culture and medium were included as untreated control and blank, respectively. The MIC is the lowest peptide concentration that inhibited the bacterial growth. The wells with sub-MIC levels of the peptides that retained growth approximately half the growth of the control wells were reinoculated in fresh MHB with sub-MIC concertation of peptides or antibiotics to attain exponential phase for MIC determination. In total, 17 passages of the bacterial cultures were conducted. A rapid increase in MIC is an indication of antibiotic resistance.
# [3] = Staphylococcus aureus, MRSA / USA300, MRSA in MHB, 20% serum, read-out: Antimicrobial activity (MIC)
# [4] = Staphylococcus aureus, MRSA / USA300, pH 6.3, MRSA in MHB, pH 6.3, read-out: Antimicrobial activity (MIC)
# [5] = Staphylococcus aureus, MRSA / USA300, pH 7.2, MRSA in MHB, pH 7.2, read-out: Antimicrobial activity (MIC)
compound,measurement,setting,value
CC(C)C[C@H](NC(=O)[C@H](CC(N)=O)NC(=O)[C@H](CCCNC(=N)N)NC(=O)[C@@H](CC(C)C)NC(=O)[C@H](Cc1ccc(-c2ccccc2)cc1)NC(=O)[C@H](CC(=O)O)NC(=O)[C@H](CCCCN)NC(=O)[C@@H](CC(C)C)NC(=O)[C@H](CCCNC(=N)N)NC(=O)[C@H](CCC(N)=O)NC(=O)[C@@H](NC(=O)[C@@H](CC(C)C)NC(=O)[C@H](CCCNC(=N)N)NC(=O)[C@H](CCCCN)NC(=O)[C@H](Cc1ccc(-c2ccccc2)cc1)NC(=O)CN)C(C)C)C(=O)N[C@H](C(N)=O)C(C)C [17BIPHE2] (HELM PEPTIDE1{G.[O=C([C@H](Cc1ccc(-c2ccccc2)cc1)N[*:1])[*:2]].K.R.[dL].V.Q.R.[dL].K.D.[O=C([C@H](Cc1ccc(-c2ccccc2)cc1)N[*:1])[*:2]].[dL].R.N.L.V.[am]}$$$$V2.0; N-terminus and C-terminus assumed),Antimicrobial activity (MIC),E. coli E423-17,<2 µM
same,Antimicrobial activity (MIC) E. coli E423-17,E. coli E423-17,4 µM
same,MIC,S. epidermidis 1457,8 µM
same,Antimicrobial activity (MIC) P. aeruginosa E411-17,P. aeruginosa E411-17,4 µM
same,MIC,S. aureus USA300 LAC; USA300,2 to 4 µM
same,MIC,"S. aureus USA300 LAC; USA300, read-out: Antimicrobial activity (MIC) S. aureus USA300",4 µM
same,Antimicrobial activity (MIC) A. baumannii B28-16,A. baumannii B28-16,4 µM
same,peptide concentration showing biofilm disruption,[1]; 12.5% MHB,16 µM
same,peptide concentration at which it started to work on biofilms,[1]; 100% MHB,8 µM
same,live bacteria remained in the biofilms,"[1]; 100% MHB, treated at 16 μM for 24 h",~30%
same,effect on biofilms,E. coli E423-17 biofilms; 12.5% MHB,dose-dependent antibiofilm effect
same,effect on biofilms,E. coli E423-17 biofilms; 100% MHB,subtle effect
NCC[C@H](O)C(=O)N[C@@H]1C[C@H](N)[C@@H](O[C@H]2O[C@H](CN)[C@@H](O)[C@H](O)[C@H]2O)[C@H](O)[C@H]1O[C@H]1O[C@H](CO)[C@@H](O)[C@H](N)[C@H]1O [Amikacin],change in MIC with dilution of MHB,[2],small changes in MIC values
same,change of MIC / activity,"S. aureus USA300 LAC; MRSA in MHB, 10% human serum",fourfold
same,MIC,S. aureus USA300 LAC; [3],32 to 64 µM
same,MIC,S. aureus USA300 LAC; [4],32 µM
same,MIC,S. aureus USA300 LAC; [5],8 µM
CCOc1ccc2ccccc2c1C(=O)N[C@@H]1C(=O)N2[C@@H]1SC(C)(C)[C@@H]2C(=O)O [Nafcillin],change in MIC with dilution of MHB,[2],small changes in MIC values
same,increase of MIC,MRSA USA300; 17 passages at sub-MIC,32 fold
same,MIC,"MRSA USA300; Staphylococcus aureus, read-out: MIC after multiple passages",128 µM
same,MIC,S. aureus USA300 LAC; [3],16 to 32 µM
same,MIC,S. aureus USA300 LAC; [4],16 µM
same,MIC,S. aureus USA300 LAC; [5],4 to 8 µM
NC[C@H]1O[C@H](O[C@H]2[C@H](O)[C@@H](O[C@H]3O[C@H](CO)[C@@H](O)[C@H](N)[C@H]3O)[C@H](N)C[C@@H]2N)[C@H](N)C[C@@H]1O [Tobramycin],change in MIC with dilution of MHB,[2],essentially no changes
same,MIC,"S. aureus USA300 LAC; Staphylococcus aureus, MRSA / USA300, MRSA in MHB, 10% serum, read-out: Antimicrobial activity (MIC)",2 to 4 µM
same,MIC,S. aureus USA300 LAC; [4],4 µM
same,MIC,S. aureus USA300 LAC; [5],2 µM
